Assays:
[1] = tested on: MDA-MB-231 cells; test: CyQuant cytotoxicity assay in MDA-MB-231 cells; format: cell-based; conditions: 24 hrs, relative to rHSA-treated cells; nutlin 10 μM, ABT-263 2.5 μM (FIG. 13)
Experimental: (§2) Cytotoxicities were measured by CyQuant Assay and normalized according to rHSA-treated cells.

[2] = tested on: Hela cells; test: CyQuant cytotoxicity assay in Hela cells; format: cell-based; conditions: 24 hrs, relative to rHSA-treated cells; nutlin 10 μM, ABT-263 2.5 μM (FIG. 13)
Experimental: as §2

[3] = plasma protein; cited from earlier work
[4] = tested on: SJSA-1 cells; test: Cell death on co-treatment with MTX in SJSA-1 cells; format: cell-based; conditions: co-treatment with MTX versus single agents (FIG. 14A)
Experimental: As shown above, HSA-PMI may induce apoptosis by disrupting MDM2/MDMX-p53 interaction and/or by inducing the release of BAK from MCL-1 or BCL-Xl. […] To test this hypothesis, SJSA cells were treated with MTX alone, HSA-PMI/nutlin alone, or MTX and HSA-PMI/nutlin.

[5] = tested on: p53; test: Western blot and densitometry of p53 protein in SJSA-1 cells; format: cell-based; conditions: 10 μM, 24 hrs, densitometry
Experimental: (§1) SJSA-1 cells were lysed in buffer containing 20 mM Tris-HCl, 50 mM NaCl, 0.05% Triton X-100, and protease inhibitor cocktail. […] Mixtures were then allowed to incubate for 1 hour at RT.

[6] = tested on: SJSA-1 cells; test: CyQuant cytotoxicity assay in SJSA-1 cells; format: cell-based; conditions: 24 hrs, relative to rHSA-treated cells; nutlin 10 μM (FIG. 13)
Experimental: Osteosarcoma SJSA-1 cells (ATCC) were grown in RPMI media containing 10% FBS. Cytotoxicity assays were performed using SJSA-1 cells plated in 24- or 96-well plates at 20,000 or 5,000 cells per well, respectively. Cells were allowed to attach overnight. All treatments were added on day 2 in RPMI media containing 1% FBS plus the equivalent amounts of 1×PBS buffer. Unless otherwise indicated, cells were exposed to treatment media for 24 hours, at which time cytotoxicity was measured using the fluorometric CyQuant assay (Invitrogen, C35006) or the fluorometric Homogeneous Caspase assay (Roche, 03005372001), according to the manufacturer's instructions, for detection of apoptosis. All results were plotted relative to rHSA- or where indicated, rHSA/FA-FITC-treated cells.

[7] = tested on: MDM2; test: Western blot and densitometry of MDM2 protein in SJSA-1 cells; format: cell-based; conditions: 10 μM, 24 hrs, densitometry
Chain of MDM2 (Q00987 whole entry): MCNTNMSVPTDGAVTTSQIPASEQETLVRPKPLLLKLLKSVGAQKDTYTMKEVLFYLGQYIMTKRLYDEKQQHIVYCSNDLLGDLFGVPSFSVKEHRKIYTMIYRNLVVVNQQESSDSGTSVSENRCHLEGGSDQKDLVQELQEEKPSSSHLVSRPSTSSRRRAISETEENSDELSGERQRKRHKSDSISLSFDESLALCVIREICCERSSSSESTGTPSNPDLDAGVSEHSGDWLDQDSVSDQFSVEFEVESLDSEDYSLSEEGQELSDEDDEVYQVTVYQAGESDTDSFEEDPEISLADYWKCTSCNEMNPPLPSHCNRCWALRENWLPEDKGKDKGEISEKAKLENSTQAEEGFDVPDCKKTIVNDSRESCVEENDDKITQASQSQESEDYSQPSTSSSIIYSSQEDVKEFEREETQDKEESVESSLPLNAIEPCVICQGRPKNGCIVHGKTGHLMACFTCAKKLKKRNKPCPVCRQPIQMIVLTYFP
Experimental: as §1

CC1(C)CCC(c2ccc(Cl)cc2)=C(CN2CCN(c3ccc(C(=O)NS(=O)(=O)c4ccc(N[C@H](CCN5CCOCC5)CSc5ccccc5)c(S(=O)(=O)C(F)(F)F)c4)cc3)CC2)C1 [ABT-263]
cell death in MDA-MB-231 cells (p53 negative) [1]: killed | cell death in Hela cells (p53 under-expressing) [2]: killed

HSA: human serum albumin, the most abundant plasma protein
average half-life [3]: 19 days

nutlin
cell death in combination with MTX [4]: not additive | increase in p53 protein [5]: 11.5 fold | cell death in SJSA-1 cells (p53 positive) [6]: killed | change in MDM2 protein expression [7]: 5 fold
